Tested on: powdery mildew of wheat (Erysiphe graminis forma specialis tritici)
Assay: Activity against powdery mildew of wheat (protective spray test on potted seedlings)
Type: in vivo
Conditions: evaluated after 7 days
Procedure: The active ingredients, separately or together, are formulated as 10% emulsion in a mixture of 63% by weight of cyclohexanone and 27% by weight of emulsifier, and diluted with water to the desired concentration.
Evaluation is carried out by determining the infected leaf areas in percent. These percentages are converted into efficacies. The efficacy (W) is calculated as follows using Abbot's formula: […]
α corresponds to the fungal infection of the treated plants in % and β corresponds to the fungal infection of the untreated (control) plants in % An efficacy of 0 means that the infection level of the treated plants corresponds to that of the untreated control plants; an efficacy of 100 means that the treated plants were not infected.
The expected efficacies of the mixtures of the active ingredients were determined using Colby's formula [R. S. Colby, Weeds 15, 20-22 (1967)] and compared with the observed efficacies.
Colby formula: E=x+y −x·y/100
E expected efficacy, expressed in % of the untreated control, when using the mixture of the active ingredients A and B at the concentrations a and b x efficacy, expressed in % of the untreated control, when using active ingredient A at a concentration of a y efficacy, expressed in % of the untreated control, when using active ingredient B at a concentration of b Leaves of potted […] seedlings of the variety “Fruhgold” were sprayed to runoff point with an aqueous formulation of active ingredient prepared from a stock solution consisting of 10% of active ingredient, 63% of cyclohexanone and 27% of emulsifier. 24 hours after the spray coating had dried on, the leaves were dusted with spores of powdery mildew of wheat (Erysiphe graminis forma specialis tritici). The test plants were subsequently kept in a greenhouse at 20-24° C. and 60-90% relative atmospheric humidity. After 7 days, the extent of the mildew development was determined visually in % infection of the total leaf area.

[1] = 16 ppm active ingredient in the spray liquor
[2] = 63 ppm active ingredient in the spray liquor

| Compound | Efficacy in % of the untreated control [1] [%] | Efficacy in % of the untreated control [2] [%] |
| --- | --- | --- |
| O=C(Nc1ccccc1-c1ccc(F)cc1)c1cccnc1Cl [I.1] | 0 | 0 |
| O=C(Nc1ccccc1-c1ccc(Cl)cc1)c1cccnc1Cl [I.2] | 0 | 0 |
